Our source for the GI50 and TGI values is PubChem BioAssay (NCI).

Holding throughout (test): growth of human tumour cells (NCI), 48 h
Assay [1] relates to LOX IMVI melanoma.
Assay [2] has as its system MOLT-4 leukemia.
Assay [3] deals with UACC-62 melanoma.
In assay [4] the test system is EKVX NSCLC.
In assay [5] the test system is OVCAR-4 ovarian.
In assay [6] the test system is U251 CNS.
In assay [7] the test system is KM12 colon.
The test system of assay [8] is SNB-75 CNS.
In assay [9] the test system is ACHN renal.
In assay [10] the test system is HS 578T breast.

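A five-concentration, 48-hour dose response in 96-well plates underlies each endpoint, interpolated linearly between surrounding concentrations. Here, GI50 denotes the concentration required for 50% inhibition of growth. TGI marks complete inhibition of growth.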

With `Cn1cccc1-c1cc(-c2ccc(Br)cc2)nc(N)c1C#N`, the GI50 was more than 100 µM in assay [1]; more than 100 µM in assay [2]; 33.3 µM in [3]; more than 100 µM in assay [4]; 77.2 µM in assay [5]; more than 100 µM in [6]. Further, the GI50 in assay [7] is more than 100 µM; in assay [8], 22.2 µM; in assay [9] it was more than 100 µM; in assay [10] it was more than 100 µM. Also, the TGI in assay [1], in assay [2], in [3], in assay [4], in assay [5] and in assay [6] was more than 100 µM throughout. Besides, the TGI in assay [7] was more than 100 µM; in [8], 84.3 µM; in [9], more than 100 µM; in assay [10], more than 100 µM.
For the compound `COc1ccc(Cc2ccccc2C(=O)O)c2ccccc12`, the TGI in [1] was 54.4 µM; in assay [3], 29.9 µM; in assay [4] it was 98.9 µM; in assay [5], more than 100 µM; in [6] it was 89.3 µM; in [7] it was 42.9 µM. The TGI in assay [8] was more than 100 µM; in assay [9], more than 100 µM; in assay [10] it was 57.8 µM.
For the compound `Cn1c2ccccc2c2c3c(c4c5ccccc5n(CCCCCC#N)c4c21)C(=O)N(O)C3=O`, the GI50 in assay [1] is 0.167 µM; in [3], 0.465 µM; in assay [4], 2.67 µM; in assay [5], 1.91 µM; in [6], 0.33 µM; in [7] it was 1.5 µM. Moreover, the values for the GI50 in [8], in assay [9] and in assay [10] were 0.43 µM, 0.317 µM and 3.25 µM, respectively. Moreover, the TGI is 1.24 µM in assay [1]; 2.03 µM in assay [3]; more than 100 µM in assay [4]; 9.33 µM in assay [5]; 1.51 µM in [6]; 5.95 µM in assay [7]. The figures for the TGI in assay [8], in [9] and in assay [10] were 6.2 µM, 1.19 µM and 41.9 µM, respectively.
For the compound `O=C(NC(=S)NS(=O)(=O)c1ccc(N2N=C3c4ccccc4CC3C2c2cccs2)cc1)c1ccccc1` (stereo unspecified), the GI50 in assay [1] was 15.2 µM; in assay [2], 26.2 µM; in [3], 14.6 µM; in [4], 19.6 µM; in assay [5], 87.6 µM; in [6], 20.1 µM. Further, the GI50 in assay [7] was 28.2 µM; in [8], more than 100 µM; in assay [10], 16.1 µM. The TGI in assay [1] is 31.7 µM; in assay [2] it was 69.9 µM; in [3] it was 36.8 µM; in assay [4] it was more than 100 µM; in [5], more than 100 µM; in [6] it was 82.3 µM. In addition, the TGI in assay [7] is 91.8 µM; in assay [8] it was more than 100 µM; in [10], 68 µM.
For `CC1=C(C(=O)Nc2ccc(F)c(Cl)c2)C(c2cccc(Cl)c2)NC(=O)N1` (stereo unspecified), the GI50 in assay [1] was 16.9 µM; in assay [3], 13.2 µM; in [4] it was 24.2 µM; in assay [6] it was 16.5 µM; in assay [7] it was 20.6 µM; in [8], 6.2 µM. Also, the values for the GI50 in [9] and in assay [10] were 18.3 µM and 12.9 µM, respectively. The TGI came out at 31.6 µM in assay [1]; 26.7 µM in assay [3]; 72.6 µM in assay [4]; 32.5 µM in [6]; 38.7 µM in assay [7]; 25.5 µM in assay [8]. The TGI in [9] amounted to 46.4 µM; in assay [10], 37.7 µM.
Regarding `Cn1c(=O)c(Cc2ccc(F)cc2F)cc2cnc(NC3CCOCC3)nc21`, the GI50 is more than 25 µM in assay [1]; more than 21.2 µM in assay [2]; more than 23.8 µM in [3]; more than 21.7 µM in assay [5]; more than 25 µM in assay [6]; more than 25 µM in assay [7]. The GI50 in [8] was more than 17.5 µM; in [9], more than 25 µM; in assay [10], more than 23.6 µM. For the same compound, the TGI in assay [1], in assay [2], in assay [3], in assay [5], in assay [6] and in [7] was more than 25 µM in each case. Moreover, the TGI in assay [8], in [9] and in assay [10] was more than 25 µM throughout.
`O=C1NC(=NCCc2ccccc2Cl)S/C1=C\c1ccc2ncccc2c1`: the GI50 in [1] is 1.57 µM; in [2] it was 5.4 µM; in [3], 6.49 µM; in assay [5] it was 4.26 µM; in assay [6], 2.64 µM; in assay [7] it was 2.5 µM. The figures for the GI50 in assay [8], in [9] and in [10] were 1.7 µM, 6.5 µM and 7.03 µM, respectively. The TGI in [1] is more than 25 µM; in assay [2], 17.2 µM; in assay [3] it was more than 25 µM; in assay [5], more than 14.9 µM; in assay [6], more than 21.4 µM; in assay [7], more than 25 µM. For the same compound, the results for the TGI in [8], in assay [9] and in [10] were more than 14.9 µM, more than 25 µM and more than 17 µM, respectively.
On to `CN(C)/[N+]([O-])=N/Oc1cc(Nc2ccc(C(=O)O)cc2)c([N+](=O)[O-])cc1[N+](=O)[O-]`, for which the GI50 is 19 µM in assay [1]; 53.3 µM in [2]; 17.9 µM in assay [3]; 20.1 µM in assay [4]; 19.3 µM in [6]; 14.6 µM in [7]. The GI50 in [8] is 25.7 µM; in assay [9] it was 26.7 µM; in assay [10], 21.7 µM. Also, the TGI was 33.6 µM in [1]; more than 100 µM in assay [2]; 32.2 µM in [3]; 46.8 µM in assay [4]; 33.5 µM in [6]; 30.8 µM in assay [7]. Further, the TGI worked out at 52.1 µM in assay [8], 62.4 µM in assay [9] and 57.3 µM in assay [10].
As for `O=c1c2ccccc2nc(-c2ccc(Cl)cc2)n1O`, the TGI in [2] is more than 100 µM; in assay [3], more than 100 µM; in [4], 77.9 µM; in [5] it was more than 100 µM; in [6], more than 100 µM; in assay [7], more than 100 µM. The values for the TGI in [8], in assay [9] and in [10] were more than 100 µM, 65 µM and more than 100 µM, respectively.
As to `NC(=O)NC(=O)CI`, the GI50 in assay [1] is 1.08 µM; in [2], 1.74 µM; in [3] it was 5.38 µM; in assay [5], 1.77 µM; in assay [6], 15.3 µM; in assay [7], 18.2 µM. The GI50 was 15.2 µM in assay [8], 1.78 µM in assay [9] and 15.8 µM in assay [10]. For the same compound, the TGI worked out at 2.71 µM in [1]; 4.13 µM in [2]; 18.7 µM in [3]; 4.08 µM in [5]; 29.3 µM in assay [6]; 35.5 µM in assay [7]. Also, the TGI was 29.4 µM in assay [8], 3.39 µM in assay [9] and 47.8 µM in [10].
Take `C=C1C(=O)O[C@H]2[C@H]1CC/C(Cn1cc(CCC)nn1)=C\CC[C@@]1(C)O[C@@H]21`: the GI50 in [1] was 3.9 µM; in [2] it was 5.54 µM; in assay [4], 11.5 µM; in assay [5], 9.46 µM; in [6], 14.1 µM; in assay [7], 17.6 µM. Moreover, the GI50 in [8] was 18.5 µM; in assay [9], 3.81 µM; in assay [10], 23.4 µM. For the same compound, the TGI in [1] was 16.9 µM; in [2] it was 27.6 µM; in assay [4] it was 23.6 µM; in assay [5], 22.7 µM; in [6], 27.7 µM; in assay [7] it was 34.1 µM. Further, the results for the TGI in [8], in [9] and in assay [10] were 69.4 µM, 15.6 µM and 69.6 µM, respectively.
For the compound `CCOc1ccc2c(c1)/C(=C\C=C\C1CC(C)C3CC(OCC)CCC3N1CC)CC(C)N2CC` (stereo unspecified), the GI50 in assay [1] was 0.871 µM; in assay [2] it was 1.47 µM; in assay [3], 1.26 µM; in assay [5] it was 0.459 µM; in assay [6], 0.38 µM; in [7], 0.673 µM. Further, the GI50 is 0.599 µM in assay [8], 1.43 µM in assay [9] and 1.59 µM in [10]. The TGI in [1] worked out at 2.27 µM; in [2], 4.14 µM; in [3], 2.77 µM; in [5], 2 µM; in assay [6], 1.51 µM; in assay [7] it was 1.92 µM. Also, the TGI came to 1.92 µM in assay [8], 2.95 µM in assay [9] and 6.81 µM in assay [10].
Regarding `CCOC(=O)C(=Cc1ccccc1Br)C(=O)OCC`, the TGI stood at 5.61 µM in assay [2]; 4.79 µM in [3]; 17.3 µM in assay [4]; 16.5 µM in assay [5]; 4.06 µM in assay [7]; 75.5 µM in assay [8]. Besides, the results for the TGI in assay [9] and in assay [10] were 6.01 µM and 30.9 µM, respectively.
